Positions of bridges follow the written chain, without caps; N, C: chain ends. Residues, ends and D or L forms follow the SMILES beside them.
The compounds below were run on MCF7 (assay: Cytotoxicity against human MCF7 cells assessed as decrease in cell viability at 10 uM after 72 hrs by MTT assay). Conditions: MCF7, 72 h.
Format: functional, cell-based

SMILES	IC50 [µM]
CC[C@H](C)[C@@H]1NC(=O)[C@@H]2CSSC[C@@H](C(=O)N[C@@H](Cc3ccc(O)cc3)C(=O)N[C@@H](CCCNC(=N)N)C(=O)N[C@@H](CC(=O)O)C(=O)O)NC(=O)[C@H](C(C)C)NC(=O)[C@H](CCCCN)NC(=O)[C@H](CC(N)=O)NC(=O)[C@H](CCCCN)NC(=O)[C@H]3CSSC[C@H](NC(=O)[C@H](CO)NC(=O)[C@H](CCC(=O)O)NC(=O)CNC(=O)[C@@H](NC(=O)[C@@H]4CCCN4C(=O)[C@@H](NC(=O)[C@@H](NC(=O)CN)C(C)C)[C@@H](C)CC)CSSC[C@@H](NC(=O)CNC(=O)[C@H](CC(C)C)NC(=O)[C@H](C(C)C)NC(=O)[C@H](CO)NC(=O)[C@H](CO)NC1=O)C(=O)N[C@@H](CO)C(=O)N3)C(=O)N[C@@H](C(C)C)C(=O)N[C@@H](Cc1ccccc1)C(=O)N[C@@H]([C@@H](C)CC)C(=O)N1CCC[C@H]1C(=O)N2	0.64
CC[C@H](C)[C@H](NC(=O)CN)C(=O)N[C@@H](C)C(=O)N[C@H]1CSSC[C@H]2NC(=O)CNC(=O)[C@@H]3CCCN3C(=O)[C@H]([C@@H](C)CC)NC(=O)[C@H](Cc3ccccc3)NC(=O)[C@@H]3CSSC[C@@H](C(=O)N[C@@H](Cc4ccc(O)cc4)C(=O)N[C@@H](Cc4ccccc4)C(=O)N[C@@H](CC(N)=O)C(=O)O)NC(=O)[C@H](C(C)C)NC(=O)[C@H](CCCCN)NC(=O)[C@H](CO)NC(=O)[C@H](CCCCN)NC(=O)[C@H](CSSC[C@H](NC(=O)[C@H](CO)NC(=O)[C@H](CCC(=O)O)NC(=O)CNC1=O)C(=O)N[C@@H](C(C)C)C(=O)N[C@@H](Cc1ccccc1)C(=O)N[C@@H](CC(C)C)C(=O)NCC(=O)N3)NC(=O)[C@H](CO)N2	7.77
CC(C)C[C@H](NC(=O)[C@@H](N)CCCCN)C(=O)N[C@H]1CSSC[C@@H]2NC(=O)[C@H](CO)NC(=O)[C@H](CS)NC(=O)CNC(=O)[C@@H]3CCCN3C(=O)[C@H]([C@@H](C)O)NC(=O)[C@H](Cc3ccc(O)cc3)NC(=O)[C@@H]3CSSC[C@@H](C(=O)N[C@@H](CCCCN)C(=O)O)NC(=O)[C@H](Cc4ccccc4)NC(=O)[C@@H]4CCCN4C(=O)[C@H](Cc4ccc(O)cc4)NC(=O)[C@H](CO)NC(=O)[C@H](CSSC[C@H](NC(=O)[C@H]([C@@H](C)O)NC(=O)[C@H](CCC(=O)O)NC(=O)CNC1=O)C(=O)N[C@@H](Cc1ccccc1)C(=O)N[C@@H](CCCCN)C(=O)N[C@@H](Cc1ccccc1)C(=O)N[C@@H](CCCCN)C(=O)N3)NC(=O)[C@H](CO)NC2=O (H-KLCGETCFKFKCYTPGCSCSCSYPFCK-OH; disulfide 3-19, 7-21, 12-26)	2.98
